Results: publication PMC8126654, “Novel Pan-Pim Kinase Inhibitors With Imidazopyridazine and Thiazolidinedione Structure Exert Potent Antitumor Activities” (Frontiers in Pharmacology, 2021)
Where two headings read alike, the source gives them in different places.

Key:
[1] = cited from earlier work
PC-3 xenograft model = test: In vivo xenograft study, PC-3; design: species or system BALB/cSlc-nu/nu mice; settings: for TGI (tumor growth inhibition): intravenously every 4 days
Experimental: (§1) For evaluation of antitumor activity, MV-4-11 (5 × 10^6 cells) or PC-3 cells (2 × 10^6 cells) were injected subcutaneously in the inguinal region of 6-week-old male BALB/cSlc-nu/nu mice (Japan SLC, Inc., Shizuoka, Japan), with Matrigel (BD Biosciences, San Jose, CA, USA). When the average tumor volume (length × width^2 × 1/2) had reached 40 to 120 mm^3, animals were randomized into groups of seven mice for vehicle control group of MV-4-11 xenograft model or five mice for the other groups (day 1). Test compounds were injected into the tail vein every 4 days from day 1, with an administration volume of 10 ml/kg. Tumor volumes were measured 2 times per week and body weights of the mice were monitored on 2 or 3 times per week as an indicator of tolerability. On day 22 or 16, antitumor activity was evaluated by weighing tumor tissues. Tumor growth inhibition, TGI (%), was calculated according to formula (1 − T/C) × 100, where T and C are the mean tumor weights for the experimental and vehicle control groups, respectively. The differences between the mean tumor weights for comparing groups were analyzed using Dunnett’s test, where P < 0.05 was considered to be significant.

MV-4-11 xenograft model = test: In vivo xenograft study, MV-4-11; design: species or system BALB/cSlc-nu/nu mice; settings: for TGI (tumor growth inhibition): intravenously every 4 days
Experimental: as §1

Pim-3 = target: T1, Pim-3 (Homo sapiens, UniProt Q86V86); test: In vitro Pim kinase activity assay (FRET-based Z'-LYTE), Pim-3; assay type: biochemical; settings: ATP 100 µM; read-out: IC50 values for enzyme activities, Pim-3
T1 construct: purchased Merck KgaA
Experimental: (§2) The inhibition ratios of test compounds for Pim-1, 2 (Life Technologies; Thermo Fisher Scientific Inc., MA, United States), 3 (Merck KgaA), and FLT3 (Life Technologies; Thermo Fisher Scientific Inc., MA, United States) were determined using a modified FRET-based Z′-LYTE kinase assay kit (Invitrogen; Thermo Fisher Scientific Inc.). The Ser/Thr 7 peptide and Tyr-2 peptide were used as substrates for Pim kinases and FLT3, respectively. The reactions were carried out in a 384-well plate with a 10 µL reaction volume per well containing 1 µM substrates in 50 mM HEPES buffer with pH 7.5, 0.01% BRIJ-35, 10 mM MgCl2, 1 mM EGTA, and an appropriate amount of kinases (Pim-1: 0.03 μg/ml, Pim-2: 0.2 μg/ml, Pim-3: 0.2 μg/ml, FLT3: 0.1 μg/ml) with test compounds. The final reaction concentrations of ATP were 400, 5, 100, and 500 µM for Pim-1, 2, 3, and FLT3 respectively. After 1 h incubation, reactions were developed and terminated, and fluorescence ratios were calculated following the manufacturer’s protocol.

Pim-2 = target: T2, Pim-2 (Homo sapiens, UniProt Q9P1W9); test: In vitro Pim kinase activity assay (FRET-based Z'-LYTE), Pim-2; assay type: biochemical; settings: ATP 5 µM; read-out: IC50 values for enzyme activities, Pim-2
T2 construct: purchased Life Technologies; Thermo Fisher Scientific Inc
T2 sequence (Q9P1W9 whole entry): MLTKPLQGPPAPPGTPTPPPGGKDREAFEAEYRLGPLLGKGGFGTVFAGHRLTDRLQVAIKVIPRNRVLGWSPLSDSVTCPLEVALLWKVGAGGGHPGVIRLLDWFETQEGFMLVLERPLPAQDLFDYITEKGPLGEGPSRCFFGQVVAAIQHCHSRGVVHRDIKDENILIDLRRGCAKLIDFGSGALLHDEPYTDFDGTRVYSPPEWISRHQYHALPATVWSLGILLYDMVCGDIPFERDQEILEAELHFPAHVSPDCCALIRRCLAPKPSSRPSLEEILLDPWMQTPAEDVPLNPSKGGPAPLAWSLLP
Experimental: as §2

Pim-1 [2] = target: T3, Pim-1 (Homo sapiens, UniProt P11309); test: In vitro Pim kinase activity assay (FRET-based Z'-LYTE), Pim-1; assay type: biochemical; settings: ATP 400 µM; read-out: IC50 values for enzyme activities, Pim-1
T3 construct: purchased Life Technologies; Thermo Fisher Scientific Inc
T3 sequence (P11309 whole entry): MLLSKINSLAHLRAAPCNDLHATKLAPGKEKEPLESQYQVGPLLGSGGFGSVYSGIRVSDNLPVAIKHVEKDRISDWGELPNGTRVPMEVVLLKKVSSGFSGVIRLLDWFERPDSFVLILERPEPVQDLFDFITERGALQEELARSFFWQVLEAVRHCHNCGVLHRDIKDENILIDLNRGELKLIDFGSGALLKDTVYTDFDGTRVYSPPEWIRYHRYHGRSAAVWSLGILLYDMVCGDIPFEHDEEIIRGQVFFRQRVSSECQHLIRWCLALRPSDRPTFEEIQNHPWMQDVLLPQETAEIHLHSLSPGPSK
Experimental: as §2

Pim-1 [3] = target: T3, Pim-1; test: Binding detection based on SPR platform (BIACORE T200); settings: 6.5, 13, 25, or 50 µM
Experimental: The interactions between test compounds and Pim-1 were detected by surface plasmon resonance platform BIACORE T200 (GE Healthcare Life Sciences, Buckinghamshire, England). Pim-1 was diluted to 20 μg/ml in 10 mM acetate buffer (pH 5.0), and then immobilized as a ligand in the N-hydroxysuccinimide/ethyl 3-(3-dimethylaminopropyl) carbodiimide-pre-activated CM5 sensor chip, following blocking by ethanolamine. Test compounds were diluted at 6.5, 13, 25, or 50 µM in a vehicle of 5% DMSO (v/v) in phosphate buffered saline (PBS). The dilutions were injected as analyte flow liquid phase with PBS containing 5% DMSO (v/v) as running buffer at a constant flow rate of 30 μL/min. A 2-min association time was set. The data were collected by Biacore Control Software. Kinetics and affinity parameters were evaluated with the Langmuir model (1:1) using BIA evaluation software.

[4] = test system: phosphorylation level of 4E-BP in PC-3 tumors; test: Pharmacodynamics study in PC-3 xenograft tumors (phospho-4E-BP immunoblot); assay type: in vivo, mice; settings: single dose 187.5 mg/kg
Experimental: (§3) Cells were plated overnight and then treated with test compounds for 4 hours. Then, the cells were lyzed in solubilization buffer [10 mM Tris-HCl (pH7.4), 0.1% (w/v) NP-40, 0.1% (w/v) sodium deoxycholate, 0.1% (w/v) SDS, 0.15 M NaCl, 1 mM EDTA, 10 µM aprotinin] with phosphatase inhibitor cocktails (Nakarai Tesque, Kyoto, Japan), and subjected to SDS-PAGE using 15% (w/v) gels under reducing conditions. The separated proteins were electrotransferred to Immobilon transfer membranes (Merck Millipore, Darmstadt, Germany). Then, each membrane was reacted with primary antibodies, which were subsequently complexed with appropriate horseradish peroxidase-conjugated secondary antibodies. Signals were detected using the ECL Western Blotting Detection System (GE Healthcare Life Sciences) and protein expression was quantified with a LAS-3000 Luminescent Image Analyzer (GE Healthcare Life Sciences). The protein bands were quantified using ImageQuant TL software (GE Healthcare Life Sciences).
Tumors were resected 1, 2, 6, or 24 h after injection and lyzed for immunoblot analysis.

PC-3 = test: Immunoblot analysis of phosphorylation of Pim kinase substrates, PC-3; assay type: cell-based; settings: PC-3, 4 h
Experimental: as §3

FLT3 = target: T4, FLT3 (Homo sapiens, UniProt P36888); test: FLT3 kinase activity assay (FRET-based Z'-LYTE); assay type: biochemical; settings: ATP 500 µM; read-out: IC50 against FLT3 kinase
T4 construct: purchased Life Technologies; Thermo Fisher Scientific Inc
T4 sequence (P36888 27-993): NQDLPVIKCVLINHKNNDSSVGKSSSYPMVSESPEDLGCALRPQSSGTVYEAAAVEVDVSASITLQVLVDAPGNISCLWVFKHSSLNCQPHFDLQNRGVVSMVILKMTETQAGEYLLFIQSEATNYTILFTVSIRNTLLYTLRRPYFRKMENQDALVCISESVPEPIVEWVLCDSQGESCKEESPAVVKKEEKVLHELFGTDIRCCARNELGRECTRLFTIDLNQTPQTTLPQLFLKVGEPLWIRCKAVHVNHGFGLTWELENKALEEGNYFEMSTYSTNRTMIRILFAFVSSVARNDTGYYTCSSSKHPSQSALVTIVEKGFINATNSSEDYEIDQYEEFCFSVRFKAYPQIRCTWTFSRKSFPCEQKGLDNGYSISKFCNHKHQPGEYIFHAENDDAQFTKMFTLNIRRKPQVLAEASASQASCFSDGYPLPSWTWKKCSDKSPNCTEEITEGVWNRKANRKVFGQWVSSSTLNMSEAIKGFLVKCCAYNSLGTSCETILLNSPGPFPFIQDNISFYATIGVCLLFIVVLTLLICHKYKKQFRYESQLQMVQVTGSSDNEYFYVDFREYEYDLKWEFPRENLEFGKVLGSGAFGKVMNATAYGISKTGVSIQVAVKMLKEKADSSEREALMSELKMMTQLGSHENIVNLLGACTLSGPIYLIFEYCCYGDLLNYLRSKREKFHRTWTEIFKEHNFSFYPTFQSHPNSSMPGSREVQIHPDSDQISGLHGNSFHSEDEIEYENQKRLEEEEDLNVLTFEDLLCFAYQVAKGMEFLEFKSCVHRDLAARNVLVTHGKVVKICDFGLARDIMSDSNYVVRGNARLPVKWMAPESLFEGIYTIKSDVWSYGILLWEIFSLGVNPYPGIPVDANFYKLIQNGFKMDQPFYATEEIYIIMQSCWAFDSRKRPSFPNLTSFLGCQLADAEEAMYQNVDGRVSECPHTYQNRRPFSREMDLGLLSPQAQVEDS
Experimental: as §2

cancer cell lines = test: Cytotoxicity assay for cell survival (cancer cell proliferation); assay type: cell-based; settings: 96 hours; read-out: IC50 for proliferation of a broad spectrum of cancer cell lines (range)
Source text: We obtained colon cancer HCT116 and HT-29 cells, prostate cancer PC-3, DU145, and LNCaP cells, lung cancer NCI-H460 and NCI-H522 cells, breast cancer MDA-MB-231 cells, AML MV-4-11 cells, and chronic myeloid leukemia (CML) K-562, MEG-01, and KU812 cells from American Type Culture Collection (Manassas, VA, United States); stomach cancer MKN45 cells from the Health Science Research Resources Bank (Osaka, Japan); pancreatic cancer AsPC-1 and MIA PaCa-2, and lung cancer A549 cells from DS Pharma Biomedical (Osaka, Japan). All cell lines were cultured in RPMI1640 medium (Life Technologies; Thermo Fisher Scientific Inc.) with 10% (v/v) fetal bovine serum (FBS; Sigma-Aldrich; Merck KgaA) at 37°C in 5% CO2.
Cells were seeded in 96-well plates and test compounds were added to the cultures at several concentrations.

[5] = experiment not completed (data not shown)

For `N[C@@H]1CCCN(c2c(/C=C3\SC(=O)NC3=O)cccc2-c2ccccc2)C1` [AZD1208], the “Reason for termination of clinical study” value ([1]; ref NCT01489722) is given as “lack of clinical response”.

In the case of `CN1CCC(CNc2ccc3ncc(-c4cccc(OC(F)(F)F)c4)n3n2)CC1` [SGI-1776], the “Reason for termination of clinical study” value ([1]; ref NCT00848601) is listed as “dose-limiting toxicity”.

For `CN1CCN(c2ccc(-c3cnc4ccc(/C=C5\SC(=O)NC5=O)nn34)cc2)CC1.CS(=O)(=O)O` [YPC-21440 MsOH, (Z)-5-([3-{4-(4-methylpiperazin-1-yl)phenyl}imidazo[1,2-b]pyridazin-6-yl]methylene)thiazolidine-2,4-dione methanesulfonate], the Body weight loss (PC-3 xenograft model; [5]) was “serious body weight loss”, the Tumor growth (PC-3 xenograft model; [5]) was “tended to be suppressed” and the “TGI (tumor growth inhibition)” value (MV-4-11 xenograft model; 62.5 mg/kg/dose) was 26%. The “Body weight decrease (as much as) compared with day 1” value (MV-4-11 xenograft model; 125 mg/kg/dose) was 5.2 ± 10%, the “TGI (tumor growth inhibition)” value (MV-4-11 xenograft model; 125 mg/kg/dose) was 60% and the “Body weight decrease (as much as) compared with day 1” value (MV-4-11 xenograft model; 187.5 mg/kg/dose) was 7.1 ± 21%. For the same compound, the “TGI (tumor growth inhibition)” value (MV-4-11 xenograft model; 187.5 mg/kg/dose) was 77%.

`CCCCCN1CCN(c2ccc(-c3cnc4ccc(/C=C5\SC(=O)NC5=O)nn34)cc2F)CC1` [YPC-21813, (Z)-5-([3-{4-(4-pentylpiperazin-1-yl)-3-fluorophenyl}imidazo[1,2-b]pyridazin-6-yl]methylene)thiazolidine-2,4-dione] showed an IC50 (Pim-3) of 360 nM, an IC50 (Pim-2) of 490 nM and an IC50 (Pim-1 [2]) of 430 nM.

For `CCCCCCCCCCN1CCN(c2ccc(-c3cnc4ccc(/C=C5\SC(=O)NC5=O)nn34)cc2F)CC1` [YPC-21814, (Z)-5-([3-{4-(4-decylpiperazin-1-yl)-3-fluorophenyl}imidazo[1,2-b]pyridazin-6-yl]methylene)thiazolidine-2,4-dione], the IC50 (Pim-3) was over 1800 nM, the “Binding to Pim-1 by SPR (Biacore)” value (Pim-1 [3]) was “did not bind to Pim-1” and the IC50 (Pim-2) was over 1800 nM. It also gave an IC50 (Pim-1 [2]) of over 1800 nM.

For `CCN1CCN(c2ccc(-c3cnc4ccc(/C=C5\SC(=O)NC5=O)nn34)cc2F)CC1.CS(=O)(=O)O` [YPC-21817 MsOH, (Z)-5-([3-{4-(4-ethylpiperazin-1-yl)-3-fluorophenyl}imidazo[1,2-b]pyridazin-6-yl]methylene)thiazolidine-2,4-dione methanesulfonate], the “Phosphorylation level of 4E-BP in tumors” value ([4]; 1, 2, and 6 hours after administration) was “signigficantly decreased”, the “Phosphorylation level of 4E-BP in tumors” value ([4]; 24 hours after administration) was “almost completely recovered” and the “TGI (tumor growth inhibition)” value (PC-3 xenograft model; 62.5 mg/kg/dose) was 0.92%. For the same compound, the “TGI (tumor growth inhibition)” value (PC-3 xenograft model; 125 mg/kg/dose) was 8.4%, the “TGI (tumor growth inhibition)” value (PC-3 xenograft model; 187.5 mg/kg/dose) was 48% and the “Serious decrease in body weight” value (PC-3 xenograft model; evaluation period) was “not observed”. For the same compound, the “TGI (tumor growth inhibition)” value (MV-4-11 xenograft model; 62.5 mg/kg/dose) was 20%, the “TGI (tumor growth inhibition)” value (MV-4-11 xenograft model; 125 mg/kg/dose) was 39% and the “TGI (tumor growth inhibition)” value (MV-4-11 xenograft model; 187.5 mg/kg/dose) was 70%. For the same compound, the “Serious decrease in body weight” value (MV-4-11 xenograft model; evaluation period) was “not observed”.

With `CCN1CCN(c2ccc(-c3cnc4ccc(/C=C5\SC(=O)NC5=O)nn34)cc2F)CC1` [YPC-21817, (Z)-5-([3-{4-(4-ethylpiperazin-1-yl)-3-fluorophenyl}imidazo[1,2-b]pyridazin-6-yl]methylene)thiazolidine-2,4-dione] the “Phosphorylation levels of Bad, 4EBP, and p21” value (PC-3) was “decreased”, the IC50 (FLT3) was 2000 nM and the IC50 (cancer cell lines) was 24 to 650 nM.

`CN1CCN(c2ccc(-c3cnc4ccc(/C=C5\SC(=O)NC5=O)nn34)cc2C(C)(C)C)CC1` [YPC-21867, (Z)-5-([3-{3-(tert-butyl)-4-(4-methylpiperazin-1-yl)phenyl}imidazo[1,2-b]pyridazin-6-yl]methylene)thiazolidine-2,4-dione] gave an IC50 (Pim-3) of 540 nM, an IC50 (Pim-2) of 190 nM and an IC50 (Pim-1 [2]) of 120 nM.
